The text below walks through data of ChEMBL document CHEMBL1146572, “Isolation and characterization of miscellaneous secondary metabolites of Deprea subtriflora” (J Nat Prod, 2003).

Structures are written as SMILES.

Test [1] can be described thus: Growth inhibition of mouse Hepa-1c1c7 cells. The test is classed as cell-based.
Test [2] is described as follows: Chemoprevention index, ratio of IC50 for mouse Hepa-1c1c7 cells to CD for NADPH:quinone reductase specific activity in mouse Hepa-1c1c7 cells. The test is classed as functional.

For the compound `C[C@H]1CC([C@](C)(O)[C@@]2(O)CC[C@H]3[C@@H]4C[C@H]5O[C@]56[C@@H](O)C=CC(=O)[C@]6(C)[C@H]4CC[C@@]32C)OC(=O)[C@@H]1C` (stereo partly specified) [PHILADELPHICALACTONE A], the half-inhibitory concentration (IC50) (as a rule, the point on the concentration scale where inhibition reaches its midpoint) in test [1] came out at 0.47 µM. For the same compound, the Ratio in test [2] amounted to 11.8.
`C[S+]([O-])CCCCN=C=S` (stereo unspecified) [SULFORAPHANE] registered a half-maximal inhibitory concentration (IC50) in test [1] of 11.7 µM. Moreover, the Ratio in test [2] worked out at 23.9.
On the same counts, the results for `C[C@H]1C(=O)OC(C2O[C@]34C[C@H]5[C@@H](C[C@H]6O[C@H]7CC(=O)[C@@]5(C)[C@@]6(O)C7=O)[C@@H]5C[C@@H](O3)[C@@H]([C@@H]54)[C@@]2(C)O)[C@@H]1C` (stereo partly specified) [SUBTRIFLORALACTONE K] are 4.8 µM and 13.3.
